From US9969758B2, “Antimicrobial compounds” (BIOMERIEUX, priority 2014, dated 2018)
≈ marks a conversion by molar mass, not a printed value.

Key:
[1] = tested on: S. marcescens (n=1); assay: MIC by agar dilution; assay type: cell-based, Serratia marcescens
Source text: (§1) Bacterial isolates. […] These included Citrobacter freundii (n=5), other species of Citrobacter (n=4), Enterobacter aerogenes (n=1), Enterobacter cloacae (n=27), Escherichia coli (n=53), Klebsiella oxytoca (n=5), Klebsiella pneumoniae (n=87), Kluyvera spp (n=1), Proteus mirabilis (n=8), Providencia rettgeri (n=2), Salmonella spp (n=3), and Serratia marcescens (n=1). Among these 197 isolates, there were 128 (65%) carbapenemase producers, including; 87 with NDM-1, 9 with IMP, 11 with KPC, 14 with OXA-48 and 7 with VIM. The majority of the carbapenemase producers jointly produced broad-spectrum β-lactamases (BSBL) or cephalosporinases (AmpC β-lactamases), but the latter are not documented for the sake of clarity.
(§2) Determining the minimum inhibitory concentrations (MIC). All the MICs were determined using an agar dilution method. This required use of a medium without a defined antagonist (peptone-free), prepared as described previously with the inclusion of 2% horse blood lysed with saponin, 25.0 μg/mL of NAD and 25.0 μg/mL of hemin [17]. […] The MICs of fosfomycin were determined by the same method, except that the IsoSensitest medium (Oxoid, Basingstoke, United Kingdom) was used, plus 25.0 μg/mL of glucose-6-phosphate (Sigma, Poole, United Kingdom) and an extended range of fosfomycin concentrations. […]

[2] = tested on: methicillin-resistant Staphylococcus aureus; assay: MIC by agar dilution; assay type: cell-based
Source text: (§3) A collection of 50 isolates of Staphylococci aureus included 36 strains of methicillin-resistant S. aureus (MRSA) frequently encountered in Europe, including strains isolated in Belgium, Finland, France, Germany and the United Kingdom. Another strain of MRSA, NCTC 11939, was included as a control, as well as a methicillin-sensitive control (NCTC 6571). Twelve other isolates of methicillin-sensitive Staphylococcus aureus (MSSA) recently collected from blood cultures were also included. Finally, 50 isolates of enterococci included two control strains (Enterococcus faecalis NCTC 755 and Enterococcus faecium NCTC 7171) and 48 isolates originating from clinical samples obtained from at least three different hospitals. The clinical isolates included E. faecalis (n=10), E. faecium (n=33), Enterococcus casseliflavus (n=3), Enterococcus gallinarum (n=2).
(§4) Determining the minimum inhibitory concentrations (MIC). All the MICs were determined using an agar dilution method. This required use of a medium without a defined antagonist (peptone-free), prepared as described previously with the inclusion of 2% horse blood lysed with saponin, 25.0 μg/mL of NAD and 25.0 μg/mL of hemin [17]. The compounds tested were dissolved in sterile deionised water and incorporated into the agar medium in a concentration range of 0.0031 to 8.0 μg/mL (0.016 to 32 μg/mL for gram-positive bacteria). All the isolates were prepared at a density equivalent to 0.5 McFarland units in sterile deionised water using a densitometer (approximately 1.5×10^8 CFU/mL), and then diluted to 1 for 15. An aliquot of 1 μL of each diluted suspension was then placed onto plates with a multispot inoculator to give the final recommended inoculation of 10 000 CFU/spot. The MICs of fosfomycin were determined by the same method, except that the IsoSensitest medium (Oxoid, Basingstoke, United Kingdom) was used, plus 25.0 μg/mL of glucose-6-phosphate (Sigma, Poole, United Kingdom) and an extended range of fosfomycin concentrations. All the dishes (including the antimicrobial-free controls) were incubated for 22 hours at 37° C. All the tests were performed on at least two independent replicates in order to examine the reproducibility.

[3] = tested on: methicillin-sensitive Staphylococcus aureus; assay: MIC by agar dilution; assay type: cell-based
Source text: as §3, §4

[4] = tested on: All Enterococci (50); assay: MIC by agar dilution; assay type: cell-based
Source text: as §3, §4

[5] = tested on: glycopeptide-resistant enterococci; assay: MIC by agar dilution; assay type: cell-based
Source text: as §3, §4

[6] = tested on: All S. aureus (50); assay: MIC by agar dilution; assay type: cell-based, Staphylococcus aureus
Source text: as §3, §4

[7] = tested on: E. coli (53); assay: MIC by agar dilution; assay type: cell-based, Escherichia coli
Source text: as §1, §4

[8] = tested on: Salmonella isolates; assay: MIC by agar dilution; assay type: cell-based, Salmonella spp; details: Salmonella, read-out: MICs
Source text: as §1, §2

[9] = tested on: E. faecalis (11); assay: MIC by agar dilution; assay type: cell-based, Enterococcus faecalis; details: Enterococcus faecalis
Source text: as §3, §4

[10] = tested on: Escherichia coli; assay: Growth and colour on Salmonella detection medium; assay type: cell-based; details: added to the chromID Salmonella medium (0.002 g/L)
Source text: The present Example 3 aims to compare the detection specificity of a reaction medium according to the invention, intended to detect bacteria of the genus Salmonella, namely the medium “modified chromlD Salmonella” against a reference detection medium for the same bacteria, namely the medium “chromlD Salmonella”.
The respective compositions of the reaction medium according to the present invention and of the reference reaction medium are presented below, within Table 2.

[11] = tested on: K. oxytoca; assay: MIC by agar dilution; assay type: cell-based, Klebsiella oxytoca; details: five isolates of K. oxytoca
Source text: as §1, §2

[12] = tested on: E. aerogenes (n=1); assay: MIC by agar dilution; assay type: cell-based, Enterobacter aerogenes
Source text: as §1, §2

[13] = tested on: AmpC (22); assay: MIC by agar dilution; assay type: cell-based, Enterobacteriaceae
Source text: as §1, §4

[14] = tested on: K. pneumoniae (87); assay: MIC by agar dilution; assay type: cell-based, Klebsiella pneumoniae; details: Klebsiella pneumoniae
Source text: as §1, §4

[15] = tested on: E. faecium (34); assay: MIC by agar dilution; assay type: cell-based, Enterococcus faecium
Source text: as §3, §4

[16] = tested on: Kluyvera sp. (n=1); assay: MIC by agar dilution; assay type: cell-based, Kluyvera spp
Source text: as §1, §2

[17] = tested on: E. cloacae (27); assay: MIC by agar dilution; assay type: cell-based, Enterobacter cloacae
Source text: as §1, §4

[18] = tested on: Enterobacteriaceae with a broad-spectrum β-lactamase; assay: MIC by agar dilution; assay type: cell-based
Source text: as §1, §4

[19] = tested on: Citrobacter (n=9); assay: MIC by agar dilution; assay type: cell-based
Source text: as §1, §4

[20] = tested on: Enterobacteriaceae (197); assay: MIC by agar dilution; assay type: cell-based
Source text: as §1, §4

[21] = tested on: carbapenemase-producing Enterobacteriaceae; assay: MIC by agar dilution; assay type: cell-based
Source text: as §1, §4

[22] = read-out: Modal MIC (most frequent MIC)

`C[C@H](NC(=O)[C@@H](N)CCl)P(=O)(O)O` [β-Cl-Alafosfalin, β-chloro-L-alanyl-L-1-aminoethylphosphonic acid] was tested, and the “concentration to which all the isolates were sensitive” value [1] was at most 2 µg/mL, the “MIC Range” value ([2]; MRSA (37)) was 0.125 to 2 mg/L and the “concentration by which all the isolates were inhibited” value ([2]; MRSA isolates) was 2.0 µg/mL. The MIC50 ([2]; Staphylococcus aureus, MRSA) was 2 mg/L (≈ 8.67 µM), the MIC90 ([2]; Staphylococcus aureus, MRSA) was 2 mg/L (≈ 8.67 µM) and the MIC ([2]; Staphylococcus aureus, MRSA, read-out: Modal MIC (most frequent MIC)) was 2 mg/L (≈ 8.67 µM). The “MIC Range” value ([3]; MSSA (13)) was 0.5 to 4 mg/L, the MIC50 ([3]; Staphylococcus aureus, MSSA) was 1 mg/L (≈ 4.34 µM) and the MIC90 ([3]; Staphylococcus aureus, MSSA) was 2 mg/L (≈ 8.67 µM). It also gave an MIC ([3]; Staphylococcus aureus, MSSA, read-out: Modal MIC (most frequent MIC)) of 1 mg/L (≈ 4.34 µM), an MIC50 [4] of 8 mg/L (≈ 34.7 µM) and an MIC90 [4] of 16 mg/L (≈ 69.4 µM). For the same compound, the MIC [4, 22] was 8 mg/L (≈ 34.7 µM), the MIC50 [5] was 8 mg/L (≈ 34.7 µM) and the MIC90 [5] was 16 mg/L (≈ 69.4 µM). For the same compound, the MIC [5, 22] was 4 mg/L (≈ 17.3 µM), the “MIC Range” value ([6]; All S. aureus (50)) was 0.125 to 4 mg/L and the MIC50 ([6]; Staphylococcus aureus) was 1 mg/L (≈ 4.34 µM). The MIC90 ([6]; Staphylococcus aureus) was 2 mg/L (≈ 8.67 µM), the MIC ([6]; Staphylococcus aureus, read-out: Modal MIC (most frequent MIC)) was 2 mg/L (≈ 8.67 µM) and the “concentration by which growth of all the isolates was inhibited” value ([7]; 53 isolates of E. coli) was 0.5 µg/mL. For the same compound, the “activity relative to that of alafosfalin” value ([7]; E. coli) was “at least twice”, the “activity relative to that of fosfomycin” value ([7]; E. coli) was “at least eight” and the “MIC Range” value ([7]; E. coli (53)) was ≤0.031-0.5 ^ μg/mL. For the same compound, the MIC50 ([7]; Escherichia coli) was 0.063 mg/L (≈ 0.273 µM), the MIC90 ([7]; Escherichia coli) was 0.125 mg/L (≈ 0.542 µM) and the MIC ([7]; Escherichia coli, read-out: Modal MIC (most frequent MIC)) was 0.063 mg/L (≈ 0.273 µM). The MIC [8] was 2 to 4 mg/L (≈ 8.67 to 17.3 µM), the MIC50 [9] was 8 mg/L (≈ 34.7 µM) and the MIC90 [9] was 16 mg/L (≈ 69.4 µM). The MIC [9, 22] was 8 mg/L (≈ 34.7 µM), the “effect on the osidase activities of the strains of Escherichia coli” value [10] was “selectively inhibit” and the “concentration by which all isolates were inhibited” value [11] was at most 2 µg/mL. The “concentration to which all the isolates were sensitive” value [12] was at most 2 µg/mL, the MIC50 [13] was 2 mg/L (≈ 8.67 µM) and the MIC90 [13] was over 8 mg/L. For the same compound, the MIC [13, 22] was over 8 mg/L, the MIC50 [14] was 1 mg/L (≈ 4.34 µM) and the MIC90 [14] was 8 mg/L (≈ 34.7 µM). For the same compound, the MIC [14, 22] was 1 mg/L (≈ 4.34 µM), the percent of isolates inhibited at 8 µg/mL ([14]; read-out: isolates inhibited) was 93% and the “MIC Range” value ([15]; E. faecium (34)) was 2 to 32 mg/L. The MIC50 ([15]; Enterococcus faecium) was 4 mg/L (≈ 17.3 µM), the MIC90 ([15]; Enterococcus faecium) was 8 mg/L (≈ 34.7 µM) and the MIC ([15]; Enterococcus faecium, read-out: Modal MIC (most frequent MIC)) was 4 mg/L (≈ 17.3 µM). For the same compound, the “concentration to which all the isolates were sensitive” value [16] was at most 2 µg/mL, the “MIC Range” value ([17]; E. cloacae (27)) was 0.063 to 1 mg/L and the “concentration by which all the isolates were inhibited” value ([17]; E. cloacae isolates (n=27)) was 1 µg/mL. It also gave an MIC50 ([17]; Enterobacter cloacae) of 0.5 mg/L (≈ 2.17 µM), an MIC90 ([17]; Enterobacter cloacae) of 0.5 mg/L (≈ 2.17 µM) and an MIC ([17]; Enterobacter cloacae, read-out: Modal MIC (most frequent MIC)) of 0.5 mg/L (≈ 2.17 µM). For the same compound, the MIC50 [18] was 0.5 mg/L (≈ 2.17 µM), the MIC90 [18] was over 8 mg/L and the MIC [18, 22] was 0.063 mg/L (≈ 0.273 µM). For the same compound, the “concentration to which all the isolates were sensitive” value [19] was at most 2 µg/mL, the MIC50 [20] was 0.5 mg/L (≈ 2.17 µM) and the MIC90 [20] was 8 mg/L (≈ 34.7 µM). The MIC [20, 22] was 1 mg/L (≈ 4.34 µM), the MIC50 [21] was 0.5 mg/L (≈ 2.17 µM) and the MIC90 [21] was 2 mg/L (≈ 8.67 µM). For the same compound, the MIC [21, 22] was 1 mg/L (≈ 4.34 µM).
